Where “and” joins values, the source holds several entries; their conditions need not be identical. Identical values can stand only once.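 Step 1: Grow cells in 96-well plates. Step 2: Expose to compound for 48 hours at 5 concentrations. Step 3: Interpolate endpoints linearly; if unreached, use highest concentration. At the GI50, growth is halved. At the TGI there is no net growth.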
Tests used:
Assay in all cases: growth of human tumour cells (NCI), 48 h
T-47D breast = system: T-47D breast
EKVX NSCLC = system: EKVX NSCLC
HCC-2998 colon = system: HCC-2998 colon
MOLT-4 leukemia = system: MOLT-4 leukemia
PC-3 prostate = system: PC-3 prostate
BT-549 breast = system: BT-549 breast
KM12 colon = system: KM12 colon
HCT-116 colon = system: HCT-116 colon
M14 melanoma = system: M14 melanoma
MDA-MB-435 = system: MDA-MB-435

Structure (SMILES) | GI50 (T-47D breast) [µM] | TGI (T-47D breast) [µM] | GI50 (EKVX NSCLC) [µM] | TGI (EKVX NSCLC) [µM] | GI50 (HCC-2998 colon) [µM] | TGI (HCC-2998 colon) [µM] | GI50 (MOLT-4 leukemia) | TGI (MOLT-4 leukemia) | GI50 (PC-3 prostate) [µM] | TGI (PC-3 prostate) [µM] | GI50 (BT-549 breast) [µM] | TGI (BT-549 breast) [µM] | GI50 (KM12 colon) [µM] | TGI (KM12 colon) [µM] | GI50 (HCT-116 colon) [µM] | TGI (HCT-116 colon) [µM] | GI50 (M14 melanoma) [µM] | TGI (M14 melanoma) [µM] | GI50 (MDA-MB-435) [µM] | TGI (MDA-MB-435) [µM]
C=CCn1c2ccccc2c2c3c(c4c5ccccc5n(CC=C)c4c21)C(=O)N(O)C3=O | 2.03 | 33.2 | 6.34 | 30.6 | 4.94 | 34 | 1.02 µM | 5.12 µM | 2.69 | 25.3 | 3.27 | 27.9 | 3.2 | 18.4 | 2.29 | 12.5 | 2.31 | 26.2 | 4.45 | 29.6
COc1ccc2c(c1)C(=Nc1ccc(F)c(Cl)c1)c1c-2c(Nc2ccc(F)c(Cl)c2)nc2ccccc12 | > 100 | > 100 | 89.2 | > 100 | > 100 | > 100 | 21.2 µM | 41.3 µM | > 94.6 | > 100 | 23.4 | > 74.4 | > 100 | > 100 | 27.8 | > 100 | 47.1 | > 100 | > 100 | > 100
Cc1ccc(/C=N/NC(=O)c2ccccc2Oc2ccccc2)o1 | 34.9 | > 100 | 38.8 | > 100 | 65.3 | > 100 | 22.8 µM | 66.5 µM | 30.3 | > 100 | 28.4 | > 100 | 40 | > 100 | 48.8 | > 100 | 40.5 | > 100 | 34.6 | > 100
Nc1[nH]nc2nc(-c3cc(Cl)ccc3Cl)cc(-c3ccc(F)cc3)c12 | 20.2 | > 100 | 17.5 | 58.3 | 19.1 | 36.1 | 23.2 µM | > 100 µM | 28.3 | 90.3 | 14.3 | 31.3 | 22.6 | 58 | 18.9 | 39.7 | 27.9 | 49.8 | 30.3 | 56
C=C1C(=O)O[C@H]2[C@H]1CC/C(COC(=O)c1cccnc1N)=C\CC[C@@]1(C)O[C@@H]21 | 1.85 | 8.01 | 3.21 | 25.1 | 4.43 | 16.2 | 0.65 µM | 6.46 µM | 3.72 | 19.2 | 2.17 | 5.6 | 3.19 | 11.8 | 0.36 | 1.26 | 1.12 | 3.59 | 2.58 | 12
CC1=CC(=O)N(c2cccc3c(N4C(=O)C=C(C)C4=O)cccc23)C1=O | 2.07 | 9.12 | 15.6 | 33.5 | 18.4 | 34.3 | 3.29 µM | 11.1 µM | 7.97 | 22.7 | 6.44 | 19.5 | 11.3 | 34 | 1.79 | 4.16 | 3.9 | 19.5 | 3.13 | > 37.1
Cc1sc(C(=O)c2cncnc2N[C@@H]2C[C@H](COS(N)(=O)=O)[C@@H](O)C2)cc1[C@@H]1NCCc2ccc(Cl)cc21 | 2.37 | 29.3 | 8.88 | 25.7 | 0.922 | 19.9 | 0.59 µM | 23.4 µM | 5.44 | 24.5 | 12.8 | 26.6 | 13.1 | 28.3 | 1.31 | 22.6 | 0.572 | 21.6 | 0.156 | 14.8
CNC(=O)ON(C(C)=O)C(=O)NC | – | 33.5 | 108 | 241 | – | 272 | 35.7 µM and 19.1 µM | > 91.5 µM and 92 µM | – | 60.7 | > 45.2 | 60.5 | – | 166 | – | 136 | > 83.2 | 41 | – | 50.2
